These results are taken from US20230102520A1, “INHIBITORS OF LOW MOLECULAR WEIGHT PROTEIN TYROSINE PHOSPHATASE (LMPTP) AND USES THEREOF” (Sanford Burnham Prebys Medical Discovery Institute, priority 2019, published 2023).

SMILES strings stand for the structures. pIC50: −log10 of the molar value.

The target in this assay is T1, human LMPTP-A (Homo sapiens, UniProt P24666).
T1 sequence (P24666 1-158): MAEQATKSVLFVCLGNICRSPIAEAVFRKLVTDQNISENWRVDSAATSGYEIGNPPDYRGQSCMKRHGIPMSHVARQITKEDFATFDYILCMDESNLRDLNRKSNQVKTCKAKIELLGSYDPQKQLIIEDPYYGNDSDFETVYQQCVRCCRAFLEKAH
Description: Enzyme Assay of Inhibition of LMPTP-A. It counts as biochemical. Particulars: phosphatase assay, OMFP or pNPP substrate, 50 mM Bis-Tris pH 6.0, 37° C. The method, then:
Example B-1: Enzyme Assay of Inhibition of LMPTP-A
Phosphatase assays were performed in buffer containing 50 mM Bis-Tris, pH 6.0, 1 mM DTT and 0.01% Triton X-100 at 37° C. For assays conducted with 3-O-methylfluorescein phosphate (OMFP) as substrate, fluorescence was monitored continuously at λex=485 and λem=525 nm. For assays conducted with para-nitrophenylphosphate (pNPP) as substrate, the reaction was stopped by addition of 2× reaction volume of 1 M NaOH, and absorbance was measured at 405 nm. IC50 values of compounds disclosed herein were determined from plots of inhibitor concentration versus percentage of enzyme activity. For inhibitor selectivity assays, each PTP was incubated with either 0.4 mM OMFP or 5 mM pNPP in the presence of 40 μM compound or DMSO. […] For the inhibitor reversibility assay, 50 nM human LMPTP-A was pre-incubated with 10 μM of compound disclosed herein or DMSO for 5 min. The enzyme was diluted 100× in phosphatase assay buffer containing 0.4 mM OMFP and fluorescence was measured at the indicated time points.
By pIC50 is commonly meant −log10 of the IC50, conventionally taken in molar units. A lower pIC50 goes with a large IC50. For the compound `Nc1ncn(Cc2c(Cl)cncc2Cl)c2nc(Cc3ccc(F)cc3)nc1-2` [3-[(3,5-dichloro(4-pyridyl))methyl]-8-[(4-fluorophenyl)methyl]-3-hydropurine-6-ylamine], the negative-log IC50 (pIC50) is greater than 6.00.

As for `COc1cncc(OC)c1Cn1cnc(N)c2nc(-c3ccccc3C)nc1-2` [3-[(3,5-dimethoxy(4-pyridyl))methyl]-8-(2-methylphenyl)-3-hydropurine-6-ylamine], the pIC50 was greater than 6.00. The compound `Cc1ccccc1-c1nc2c(N)ncn(Cc3sccc3Cl)c-2n1` [3-[(3-chloro(2-thienyl))methyl]-8-(2-methylphenyl)-3-hydropurine-6-ylamine] showed a negative logarithm of the IC50 (pIC50) greater than 6.00.

In turn, `Nc1ncn(Cc2sccc2Cl)c2nc(-c3ccccc3)nc1-2` [3-[(3-chloro(2-thienyl))methyl]-8-phenyl-3-hydropurine-6-ylamine] showed a negative-log IC50 (pIC50) greater than 6.00.

Compound `Cc1ccccc1-c1nc2c(N)ncn(Cc3ccncc3Cl)c-2n1` [3-[(3-chloro(4-pyridyl))methyl]-8-(2-methylphenyl)-3-hydropurine-6-ylamine] showed a negative-log IC50 (pIC50) greater than 6.00. In the case of `Cc1ccccc1-c1nc2c(N)ncn(Cc3ccncc3F)c-2n1` [3-[(3-fluoro(4-pyridyl))methyl]-8-(2-methylphenyl)-3-hydropurine-6-ylamine] it was greater than 6.00. Turning to `Cc1ccccc1-c1nc2c(N)ncn(Cc3c(Cl)ncnc3Cl)c-2n1` [3-[(4,6-dichloropyrimidin-5-yl)methyl]-8-(2-methylphenyl)-3-hydropurine-6-ylamine], the negative-log IC50 (pIC50) is greater than 6.00.

Take `Nc1ncn(Cc2c(Cl)ncnc2Cl)c2nc(-c3ccccc3)nc1-2` [3-[(4,6-dichloropyrimidin-5-yl)methyl]-8-phenyl-3-hydropurine-6-ylamine]: the pIC50 was greater than 6.00. As to `Cc1ccccc1-c1nc2c(N)nc(C)n(Cc3c(Br)cnn3C)c-2n1` [3-[(4-bromo-1-methylpyrazol-5-yl)methyl]-2-methyl-8-(2-methylphenyl)-3-hydropurine-6-ylamine], the pIC50 is 4.70 to 6.00. `Cc1ccccc1-c1nc2c(N)ncn(Cc3c(Br)cnn3C)c-2n1` [3-[(4-bromo-1-methylpyrazol-5-yl)methyl]-8-(2-methylphenyl)-3-hydropurine-6-ylamine] showed a negative logarithm of the IC50 (pIC50) greater than 6.00.

As for `Cn1ncc(Br)c1Cn1cnc(N)c2nc(-c3ccccc3)nc1-2` [3-[(4-bromo-1-methylpyrazol-5-yl)methyl]-8-phenyl-3-hydropurine-6-ylamine], the pIC50 was greater than 6.00. The compound `Cc1ccccc1-c1nc2c(N)ncn(Cc3c(Br)ccnc3Cl)c-2n1` [3-[(4-bromo-2-chloro(3-pyridyl))methyl]-8-(2-methylphenyl)-3-hydropurine-6-ylamine] gave a negative-log IC50 (pIC50) greater than 6.00. In the case of `Nc1ncn(Cc2c(Br)ccnc2Cl)c2nc(-c3ccccc3)nc1-2` [3-[(4-bromo-2-chloro(3-pyridyl))methyl]-8-phenyl-3-hydropurine-6-ylamine] it was greater than 6.00; in that of `Cc1ccccc1-c1nc2c(N)ncn(Cc3c(Cl)ccnc3F)c-2n1` [3-[(4-chloro-2-fluoro(3-pyridyl))methyl]-8-(2-methylphenyl)-3-hydropurine-6-ylamine], greater than 6.00; in that of `Nc1ncn(Cc2c(Cl)ccnc2F)c2nc(-c3ccccc3)nc1-2` [3-[(4-chloro-2-fluoro(3-pyridyl))methyl]-8-phenyl-3-hydropurine-6-ylamine], greater than 6.00. `COc1nccc(I)c1Cn1cnc(N)c2nc(-c3ccccc3)nc1-2` [3-[(4-iodo-2-methoxy(3-pyridyl))methyl]-8-phenyl-3-hydropurine-6-ylamine] gave a pIC50 greater than 6.00. In the case of `Cc1ccccc1-c1nc2c(N)ncn(Cc3scnc3C)c-2n1` [3-[(4-methyl(1,3-thiazol-5-yl))methyl]-8-(2-methylphenyl)-3-hydropurine-6-ylamine] it was greater than 6.00; in that of `Cc1ncsc1Cn1cnc(N)c2nc(-c3ccccc3)nc1-2` [3-[(4-methyl(1,3-thiazol-5-yl))methyl]-8-phenyl-3-hydropurine-6-ylamine], 4.70 to 6.00; in that of `Cc1ccccc1-c1nc2c(N)ncn(Cc3cncc(Cl)c3)c-2n1` [3-[(5-chloro(3-pyridyl))methyl]-8-(2-methylphenyl)-3-hydropurine-6-ylamine], greater than 6.00.

Consider `COc1cccc(OC)c1-c1nc2c(N)ncn(Cc3c(Cl)cnc(Cl)c3Cl)c-2n1` [8-(2,6-dimethoxyphenyl)-3-[(2,3,5-trichloro(4-pyridyl))methyl]-3-hydropurine-6-ylamine], for which the pIC50 is greater than 6.00.

Take `COc1cccc(OC)c1-c1nc2c(N)ncn(Cc3c(Cl)ncc(Cl)c3Cl)c-2n1` [8-(2,6-dimethoxyphenyl)-3-[(2,4,5-trichloro(3-pyridyl))methyl]-3-hydropurine-6-ylamine]: the negative logarithm of the IC50 (pIC50) is greater than 6.00.

As to `Cc1ccccc1-c1nc2c(N)ncn(Cc3c(Cl)cnc(Cl)c3Cl)c-2n1` [8-(2-methylphenyl)-3-[(2,3,5-trichloro(4-pyridyl))methyl]-3-hydropurine-6-ylamine], the negative-log IC50 (pIC50) was greater than 6.00. To `Nc1ncn(Cc2c(Cl)cncc2Cl)c2nc(-c3ccc4c(c3)OCO4)nc1-2` [8-(2H-benzo[d]1,3-dioxolen-5-yl)-3-[(3,5-dichloro(4-pyridyl))methyl]-3-hydropurine-6-ylamine] belongs greater than 6.00; to `Nc1ccncc1-c1nc2c(N)ncn(Cc3c(Cl)cncc3Cl)c-2n1` [8-(4-amino(3-pyridyl))-3-[(3,5-dichloro(4-pyridyl))methyl]-3-hydropurine-6-ylamine], 4.70 to 6.00. In the case of `Nc1ncn(Cc2c(Cl)ccnc2Cl)c2nc(C3C4CC5CC(C4)CC3C5)nc1-2` (stereo not drawn) [8-adamantan-2-yl-3-[(2,4-dichloro(3-pyridyl))methyl]-3-hydropurine-6-ylamine] it was greater than 6.00. To `Nc1ncn(Cc2c(Cl)cncc2Cl)c2nc(C3C4CC5CC(C4)CC3C5)nc1-2` (stereo not drawn) [8-adamantan-2-yl-3-[(3,5-dichloro(4-pyridyl))methyl]-3-hydropurine-6-ylamine] belongs greater than 6.00; to `Nc1ncn(Cc2c(Cl)cncc2Cl)c2nc(-c3nc4ccccc4[nH]3)nc1-2` [8-benzimidazol-2-yl-3-[(3,5-dichloro(4-pyridyl))methyl]-3-hydropurine-6-ylamine], greater than 6.00. Turning to `Nc1ncn(Cc2c(Cl)cncc2Cl)c2nc(-c3ccc4[nH]cnc4c3)nc1-2` [8-benzimidazol-5-yl-3-[(3,5-dichloro(4-pyridyl))methyl]-3-hydropurine-6-ylamine], the negative logarithm of the IC50 (pIC50) was greater than 6.00. In turn, `Nc1ncn(Cc2c(Cl)cncc2Cl)c2nc(-c3ccc4ccoc4c3)nc1-2` [8-benzo[3,4-b]furan-6-yl-3-[(3,5-dichloro(4-pyridyl))methyl]-3-hydropurine-6-ylamine] gave a negative logarithm of the IC50 (pIC50) greater than 6.00.

On to `Nc1ncn(Cc2c(Cl)cncc2Cl)c2nc(-c3ccc4occc4c3)nc1-2` [8-benzo[b]furan-5-yl-3-[(3,5-dichloro(4-pyridyl))methyl]-3-hydropurine-6-ylamine], for which the negative logarithm of the IC50 (pIC50) was greater than 6.00. As to `Nc1ncn(Cc2c(Cl)cncc2Cl)c2nc(-c3ccc4sccc4c3)nc1-2` [8-benzo[b]thiophen-5-yl-3-[(3,5-dichloro(4-pyridyl))methyl]-3-hydropurine-6-ylamine], the negative-log IC50 (pIC50) was greater than 6.00. As to `Nc1ncn(Cc2c(Cl)ccnc2Cl)c2nc(-c3ccc4ncsc4c3)nc1-2` [8-benzothiazol-6-yl-3-[(2,4-dichloro(3-pyridyl))methyl]-3-hydropurine-6-ylamine], the negative logarithm of the IC50 (pIC50) is greater than 6.00.

In the case of `CCN(CC)Cc1nc2c(N)ncn(Cc3c(Cl)cncc3Cl)c-2n1` [({6-amino-3-[(3,5-dichloro(4-pyridyl))methyl](3-hydropurin-8-yl)}methyl)diethylamine], the pIC50 is 4.70 to 6.00.
